Data on 1 compound can be found in EPA's ToxValDB 9.5 (doi:10.2903/j.efsa.2012.2921).

“And” between values parts separate entries of the source, which are not always exact repeats. Equal entries are not always repeated.

One data set deals with Apis mellifera. To be noted: acute, mortality.
Another data set has as its system Bibionidae. The following applies: chronic/long-term; duration: 28 days.
The subject of another data set is Canidae. To be noted: chronic; duration: 1 years; oral; Dog Other; no effects.
The next data set concerns Daphnia magna. To be noted: chronic/long-term; duration: 21 days; reproduction.
A further data set concerns Folsomia candida. To be noted: chronic/long-term.
In the next data set the test system is Mus musculus. The following applies: no effects.
The next data set has as its system Oncorhynchus mykiss. To be noted: acute; duration: 96 hours; mortality.
Another data set relates to Oryctolagus sp. The following applies: reproduction developmental; no effects.
The next data set relates to Pimephales promelas. The following applies: chronic/long-term; duration: 33 days; growth.
For another data set, the system named is Rattus norvegicus. To be noted: for NOAEL: no effects.
Another data set relates to Tagia sp. To be noted: acute; duration: 14 days; mortality.
[1] abbreviates: subchronic, duration: 90 days, oral.

As to `CCCCCCCCc1c(CC)nc2ncnn2c1N` [Ametoctradin], the LD50 was greater than 2000 mg/kg-day in the data set with Anas platyrhynchos (acute, oral, unspecified, mortality); greater than 100 µg/piece in the data set with Apis mellifera (dermal); greater than 112 µg/piece in the data set on Apis mellifera (oral, unspecified); greater than 2000 mg/kg-day in the data set on Colinus virginianus (acute, oral, mortality); greater than 2000 mg/kg-day in the data set with Rattus norvegicus (acute, oral, mortality). Further, the NOEC was no less than 188 mg/kg-day in the data set on Anas platyrhynchos (reproductive); 222 mg/kg in the data set with Bibionidae; no less than 115 mg/kg-day in the data set on Colinus virginianus (reproduction developmental); 0.044 mg/L in the data set on Daphnia magna; no less than 268 mg/kg with Folsomia candida; 0.048 mg/L in the data set with Pimephales promelas. Moreover, the LC50 was greater than 1550 mg/kg-day with Anas platyrhynchos (short-term, oral, feed, mortality); greater than 758 mg/kg-day in the data set on Colinus virginianus (acute, oral, diet, mortality); greater than 0.0646 µg/mL with Oncorhynchus mykiss; greater than 1000 mg/kg in the data set with Tagia sp.. The NOAEL with Canidae is 848 mg/kg-day; in the data set with Mus musculus (chronic, duration: 18 months) it was 1100 mg/kg-day; with Mus musculus (setting [1]), 1120 mg/kg-day; in the data set with Oryctolagus sp. it was 1000 mg/kg-day; in the data set on Rattus norvegicus (chronic, duration: 2 years) it was 871 mg/kg-day; with Rattus norvegicus (reproduction developmental) it was ≥ 939 mg/kg-day and 1000 mg/kg-day. The compound also returned an NOAEL in the data set with Rattus norvegicus (setting [1]) of 1080 mg/kg-day.

What is called NOAEL is the highest tested level that showed no adverse finding.
